{
  "source": "patent US8574893B2",
  "about": "“Nucleic acid cleavage complex and method for using the same” (National Cheng Kung University, priority 2010, dated 2013)",
  "tested_on": "pST3 test vector",
  "assay": "DNA cleavage test of the nucleic acid cleavage reagent in vitro",
  "format": "biochemical",
  "procedure": "First, the pST3 test vector of Test Example 1 is prepared. The abovementioned vector and the nucleic acid cleavage reagent (Cypate) are mixed in a molar ratio of 1:1000. […] Columns 5 and 6 of FIG. 5 show the position of the nucleic acid cleavage reagent (Cypate) in the gel.",
  "data": [
    {"smiles": "CC1(C)C(/C=C/C=C/C=C/C=C2/N(CCC(=O)O)c3ccc4ccccc4c3C2(C)C)=[N+](CCC(=O)[O-])c2ccc3ccccc3c21", "note": "[Cypate, cypate]", "values": [
      {"measurement": "cleavage of the plasmid to nicked open-circular plasmid (Form II plasmid)", "setting": "vector:Cypate molar ratio 1:1000, irradiation for 5 mins, FIG. 5 column 8", "value": "partially cleaved"},
      {"measurement": "cleavage of the plasmid to nicked open-circular plasmid (Form II plasmid)", "setting": "vector:Cypate molar ratio 1:1000, irradiation for 10 mins, FIG. 5 column 10", "value": "completely cleaved"}
    ]}
  ]
}
